The text below walks through data of PubChem BioAssay AID248 (DTP/NCI, 2004).

This experiment relates to L1210 leukemia ip in BDF1 mice, survival T/C. The experiment in a line: NCI In Vivo Anticancer Drug Screen. Data for tumor model L1210 Leukemia (intraperitoneal) in B6D2F1 (BDF1) mice. Particulars: endpoint: mean survival time, higher = longer survival. Summed up:
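Tumor was transplanted into mice, which were then dosed with test compound or vehicle alone. Survival was recorded for each group, and the treated figure was expressed relative to the control figure.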

Where [1] appears, read: dose: 200.0 mg/kg/injection, schedule: Q04DX002 (ip), vehicle: saline with Tween-80.
Setting [2] is: dose: 400.0 mg/kg/injection, schedule: Q04DX002 (ip), vehicle: saline with Tween-80.
Where [3] appears, read: dose: 50.0 mg/kg/injection, schedule: Q01DX001 (ip), vehicle: carboxymethylcellulose (CMC).
Where [4] appears, read: dose: 100.0 mg/kg/injection, schedule: Q01DX001 (ip), vehicle: carboxymethylcellulose (CMC).
Where [5] appears, read: dose: 200.0 mg/kg/injection, schedule: Q01DX001 (ip), vehicle: carboxymethylcellulose (CMC).
Where [6] appears, read: dose: 400.0 mg/kg/injection, schedule: Q01DX001 (ip), vehicle: carboxymethylcellulose (CMC).
The mark [7] stands for this setting: dose: 100.0 mg/kg/injection, schedule: Q04DX003 (ip), vehicle: Klucel (hydroxypropylcellulose) (HPC).
Where [8] appears, read: dose: 200.0 mg/kg/injection, schedule: Q04DX003 (ip), vehicle: Klucel (hydroxypropylcellulose) (HPC).
The mark [9] stands for this setting: dose: 400.0 mg/kg/injection, schedule: Q04DX003 (ip), vehicle: Klucel (hydroxypropylcellulose) (HPC).
Where [10] appears, read: dose: 100.0 mg/kg/injection, schedule: Q01DX001 (ip), vehicle: saline.
Setting [11] is: dose: 100.0 mg/kg/injection, schedule: Q01DX009 (ip), vehicle: saline.
The mark [12] stands for this setting: dose: 200.0 mg/kg/injection, schedule: Q01DX009 (ip), vehicle: saline.
[13] abbreviates: dose: 400.0 mg/kg/injection, schedule: Q01DX009 (ip), vehicle: saline.

Molecules are shown by their SMILES. Where “and” joins values, the source holds several entries; their conditions need not be identical. Identical values can stand only once. Inconclusive results and toxic doses are left out.

In the case of `O=C(c1ccccc1)c1ccsc1C(=O)O`, the T/C is 94 % of control (dose: 6.25 mg/kg/injection, schedule: Q04DX002 (ip), vehicle: saline with Tween-80); 97 % of control (dose: 12.5 mg/kg/injection, schedule: Q04DX002 (ip), vehicle: saline with Tween-80); 90 % of control (dose: 25.0 mg/kg/injection, schedule: Q04DX002 (ip), vehicle: saline with Tween-80); 101 % of control under setting [1]; 89 % of control under setting [2].
Turning to `CCOc1ccccc1C1N2CCN(CC2)C(c2ccccc2OCC)N2CCN1CC2` (centres undefined), the T/C is, setting by setting: under setting [3], 100 % of control; under setting [4], 100 % of control; under setting [5], 100 % of control; under setting [6], 105 % of control.
Turning to `CN(Cc1cnc2nc(N)nc(N)c2n1)c1ccc(C(=O)NC(CCC(=O)O)C(=O)O)c2ccccc12` (centres undefined), the T/C is 159 % of control (dose: 2.0 mg/kg/injection, schedule: Q01DX009 (ip), vehicle: saline); 120 % of control (dose: 2.0 mg/kg/injection, schedule: Q04DX003 (ip), vehicle: saline); 152 % of control and 172 % of control (dose: 4.0 mg/kg/injection, schedule: Q01DX009 (ip), vehicle: saline); 122 % of control (dose: 4.0 mg/kg/injection, schedule: Q04DX003 (ip), vehicle: saline); 156 % of control and 160 % of control (dose: 8.0 mg/kg/injection, schedule: Q01DX009 (ip), vehicle: saline); 106 % of control (dose: 8.0 mg/kg/injection, schedule: Q04DX003 (ip), vehicle: saline). Further, the T/C is 123 % of control (dose: 13.0 mg/kg/injection, schedule: Q01DX009 (ip), vehicle: saline); 115 % of control (dose: 64.0 mg/kg/injection, schedule: Q04DX003 (ip), vehicle: saline); 101 % of control (dose: 128.0 mg/kg/injection, schedule: Q04DX003 (ip), vehicle: saline).
On to `CCOc1ccccc1NC(=O)Nc1cccc(Cl)c1`, for which the T/C by setting is: under setting [7], 100 % of control; (dose: 200.0 mg/kg/injection, schedule: Q01DX009 (ip), vehicle: Klucel (hydroxypropylcellulose) (HPC)) 94 % of control; under setting [8], 100 % of control; (dose: 400.0 mg/kg/injection, schedule: Q01DX009 (ip), vehicle: Klucel (hydroxypropylcellulose) (HPC)) 97 % of control; under setting [9], 104 % of control.
`CC1(C)OC2C(C(N)=O)OC(n3cnc4c(N)ncnc43)C2O1` (centres undefined): the T/C (dose: 100.0 mg/kg/injection, schedule: Q01DX005 (ip), vehicle: saline) is 104 % of control and the T/C (dose: 200.0 mg/kg/injection, schedule: Q01DX005 (ip), vehicle: saline) is 102 % of control.
`C[n+]1ccc(NC(=O)c2ccc(NC(=O)c3cccc(C(=O)Nc4ccc(C(=O)Nc5cc[n+](C)cc5)cc4)c3)cc2)cc1`: the T/C by setting is: (dose: 1.25 mg/kg/injection, schedule: Q01DX Z (ip), vehicle: carboxymethylcellulose (CMC)) 108 % of control; (dose: 2.5 mg/kg/injection, schedule: Q01DX Z (ip), vehicle: carboxymethylcellulose (CMC)) 113 % of control; (dose: 5.0 mg/kg/injection, schedule: Q01DX Z (ip), vehicle: carboxymethylcellulose (CMC)) 108 % of control; (dose: 10.0 mg/kg/injection, schedule: Q01DX Z (ip), vehicle: carboxymethylcellulose (CMC)) 111 % of control; (dose: 20.0 mg/kg/injection, schedule: Q01DX Z (ip), vehicle: carboxymethylcellulose (CMC)) 161 % of control; (dose: 40.0 mg/kg/injection, schedule: Q01DX Z (ip), vehicle: carboxymethylcellulose (CMC)) 166 % of control. Besides, the T/C is 97 % of control (dose: 62.0 mg/kg/injection, schedule: Q01DX Z (oral), vehicle: carboxymethylcellulose (CMC)); 188 % of control (dose: 80.0 mg/kg/injection, schedule: Q01DX Z (ip), vehicle: carboxymethylcellulose (CMC)); 98 % of control (dose: 125.0 mg/kg/injection, schedule: Q01DX Z (oral), vehicle: carboxymethylcellulose (CMC)); 153 % of control (dose: 160.0 mg/kg/injection, schedule: Q01DX Z (ip), vehicle: carboxymethylcellulose (CMC)); 112 % of control (dose: 250.0 mg/kg/injection, schedule: Q01DX Z (oral), vehicle: carboxymethylcellulose (CMC)); 108 % of control (dose: 500.0 mg/kg/injection, schedule: Q01DX Z (oral), vehicle: carboxymethylcellulose (CMC)).
Consider `O=S(=O)(c1ccccc1)C(CC(S(=O)(=O)c1ccccc1)S(=O)(=O)c1ccccc1)S(=O)(=O)c1ccccc1`, for which the T/C (dose: 100.0 mg/kg/injection, schedule: Q04DX002 (ip), vehicle: saline with Tween-80) is 119 % of control; the T/C under setting [1] is 97 % of control; the T/C under setting [2] was 90 % of control.
As for `Cc1ccc(C(c2ccccc2)c2ccccc2)cc1C`, the T/C was 97 % of control under setting [10] and 88 % of control (dose: 400.0 mg/kg/injection, schedule: Q01DX001 (ip), vehicle: saline).
Consider `O=C1c2ccccc2CCC12OC2c1ccc(Cl)cc1` (centres undefined), for which the T/C (dose: 50.0 mg/kg/injection, schedule: Q01DX009 (ip), vehicle: saline) is 102 % of control; the T/C under setting [11] is 107 % of control; the T/C (dose: 100.0 mg/kg/injection, schedule: Q04DX003 (ip), vehicle: saline with Tween-80) is 108 % of control; the T/C under setting [12] was 98 % of control; the T/C (dose: 200.0 mg/kg/injection, schedule: Q04DX003 (ip), vehicle: saline with Tween-80) was 95 % of control; the T/C under setting [13] was 100 % of control. Besides, the T/C (dose: 400.0 mg/kg/injection, schedule: Q04DX003 (ip), vehicle: saline with Tween-80) was 103 % of control.
On to `CC(=O)CCC(C(=O)c1ccccc1)c1ccccc1` (centres undefined), for which the T/C (dose: 222.0 mg/kg/injection, schedule: Q01DX Z (ip), vehicle: methylcellulose (MC)) was 101 % of control.
With `[O-][N+](=Nc1cccc(Br)c1)c1cccc(Br)c1`, the T/C by setting is: under setting [3], 101 % of control; under setting [4], 104 % of control; under setting [5], 101 % of control; under setting [6], 117 % of control.
Regarding `CCOC(=O)C1c2cc3c(cc2C(c2cc(OC)c(OC)c(OC)c2)C2C(=O)OCC12)OCO3` (centres undefined), the T/C is, setting by setting: (dose: 2.5 mg/kg/injection, schedule: Q01DX009 (ip), vehicle: Klucel (hydroxypropylcellulose) (HPC)) 112 % of control; (dose: 3.0 mg/kg/injection, schedule: Q01DX009 (ip), vehicle: Klucel (hydroxypropylcellulose) (HPC)) 124 % of control; (dose: 4.0 mg/kg/injection, schedule: Q01DX009 (ip), vehicle: Klucel (hydroxypropylcellulose) (HPC)) 105 % of control; (dose: 6.0 mg/kg/injection, schedule: Q01DX009 (ip), vehicle: Klucel (hydroxypropylcellulose) (HPC)) 113 % of control; (dose: 9.0 mg/kg/injection, schedule: Q01DX009 (ip), vehicle: Klucel (hydroxypropylcellulose) (HPC)) 115 % of control; (dose: 12.5 mg/kg/injection, schedule: Q01DX009 (ip), vehicle: Klucel (hydroxypropylcellulose) (HPC)) 88 % of control.
In the case of `Cc1ccc(S(=O)(=O)OCC(F)(F)C(F)(F)C(F)(F)C(F)(F)C(F)(F)C(F)(F)C(F)(F)F)cc1`, the T/C by setting is: under setting [11], 94 % of control; under setting [12], 88 % of control; under setting [13], 93 % of control.
With `CC(CO)(CO)[N+](=O)[O-]`, the T/C (dose: 100.0 mg/kg/injection, schedule: Q04DX003 (ip), vehicle: saline) was 101 % of control; the T/C (dose: 200.0 mg/kg/injection, schedule: Q04DX003 (ip), vehicle: saline) is 96 % of control; the T/C (dose: 400.0 mg/kg/injection, schedule: Q04DX003 (ip), vehicle: saline) is 93 % of control.
Regarding `CN1C(=O)c2ccccc2/C=C\c2ccccc21`, the T/C runs as follows: (dose: 100.0 mg/kg/injection, schedule: Q04DX002 (ip), vehicle: Klucel (hydroxypropylcellulose) (HPC)) 103 % of control; (dose: 200.0 mg/kg/injection, schedule: Q04DX002 (ip), vehicle: Klucel (hydroxypropylcellulose) (HPC)) 92 % of control; (dose: 400.0 mg/kg/injection, schedule: Q04DX002 (ip), vehicle: Klucel (hydroxypropylcellulose) (HPC)) 87 % of control.
Take `C[n+]1cccc2c(C(=O)O)cccc21`: the T/C is, setting by setting: under setting [10], 97 % of control; (dose: 200.0 mg/kg/injection, schedule: Q01DX001 (ip), vehicle: saline) 96 % of control.
Turning to `Clc1ccc(/C=C/c2cccc(/C=C/c3ccc(Cl)cc3)n2)cc1`, the T/C runs as follows: under setting [7], 96 % of control; under setting [8], 97 % of control; under setting [9], 97 % of control.
